# Experimental data taken from patent US6359141B2, “Water soluble prodrugs of azole compounds” (Bristol-Myers Squibb Company, priority 1998, dated 2002).
# Columns and labels:
# [1] = Release of parent in human plasma; format: in vitro ADME; details: prodrug conversion to bioactive parent
solubility (physchem) [µg/mL],SMILES,Release of Parent in Human Plasma [1],solubility (Solubility) [µg/mL]
–,"CCN(CC)Cc1ccc(C(=O)OCO[C@@](Cn2cncn2)(c2ccc(F)cc2F)[C@@H](C)c2nc(-c3ccc(C#N)cc3)cs2)cc1 [Example 1, (2R,3R)-3-[4-(4-cyanophenyl)thiazol-2-yl]-2-(2,4-difluorophenyl)-1-(1H-1,2,4-triazol-1-yl)-2-[[p-(N,N-diethylaminomethyl)benzoyloxy]methoxy]butane]",Yes,> 1000
–,C[C@@H](c1nc(-c2ccc(C#N)cc2)cs1)C(Cn1cncn1)(OP(=O)([O-])[O-])c1ccc(F)cc1F.[Na+].[Na+] (some centres unmarked) [Example 7 of WO 97/28169],No,> 1000
< 6,"C[C@@H](c1nc(-c2ccc(C#N)cc2)cs1)[C@](O)(Cn1cncn1)c1ccc(F)cc1F [Parent, (2R,3R)-3-[4-(4-cyanophenyl)thiazol-2-yl]-2-(2,4-difluorophenyl)-1-(1H-1,2,4-triazol-1-yl)-butan-2-ol]",–,–
